Reference: patent publication US20250352488A1, “IONIZABLE LIPIDS AND NANOPARTICLES COMPRISING SAME” (MANA BIO LTD., priority 2022, published 2025)

Key:
BALB/c mouse = test: in vivo expression distribution of encapsulated mRNA F-LUC (IVIS imaging, ex-vivo tissue analysis); details: intravenous, 13 μg/mouse
Procedure: (§1) The inventors determined the expression distribution of the exemplary LNPs in vivo by assessing expression of the encapsulated mRNA (mRNA F-LUC). The LNPS of the invention encapsulating mRNA F-LUC have been injected intravenously into a BALB/c mouse, at a dosage of 13 μg/mouse (0.52-0.65 mg/kg). In-vivo imaging were done by IVIS imaging. Ex-vivo tissue analysis was done for lung, heart, spleen, kidney, and liver using IVIS. Histology assessment was determined by H&E staining with pathologist report for toxicity. Histology assessment concluded normal morphology without any treatment related pathological changes.
as §1, with “LNPs” for “LNPS”

lung cells = test: cell-based studies of specificity to lung cells; details: LNPs containing the compound as ionizable lipid; compared to a similar composition comprising Dlin-MC3-DMA
cells = test: cell-penetration of LNPs and intracellular delivery of mRNA; assay type: cell-based; details: LNPs containing the compound as ionizable lipid; compared to a similar composition comprising Dlin-MC3-DMA
Procedure: The inventors determined cell-penetration of the exemplary LNPs and intracellular delivery of mRNA.
More specifically, particles were incubated on cells for 16-24 hrs at 37° C. under 5% CO2 and expression levels were measured. Formulations were compared to Lipofectamine control and to MC3 control, as well as to untreated controls.

Compound	lung specificity of the LNP (BALB/c mouse)	specificity to the lung cells (lung cells)	internalization efficiency (cells)
CCCCCCCCOCC(O)CN(CCCCCCCCN(CC(O)COCCCCCCCC)CC(O)COCCCCCCCC)CC(O)COCCCCCCCC (centres unmarked) [MB-222]	enhanced lung specificity	enhanced specificity to the lung cells	
CCCCCCCCOCC(O)CN(CCOCCOCCN(CC(O)COCCCCCCCC)CC(O)COCCCCCCCC)CC(O)COCCCCCCCC (centres unmarked) [MB-212]	enhanced lung specificity	enhanced specificity to the lung cells	superior internalization efficiency
CCCCCCCCOCC(O)CN(CCCCN(CC(O)COCCCCCCCC)CC(O)COCCCCCCCC)CC(O)COCCCCCCCC (centres unmarked) [MB-208]			superior internalization efficiency
CCCCCCCCCCCCOCC(O)CN(CCCCCCCCN(CC(O)COCCCCCCCCCCCC)CC(O)COCCCCCCCCCCCC)CC(O)COCCCCCCCCCC (centres unmarked) [MB-205]			superior internalization efficiency
CCCCCCCCCOCC(O)CN(CCN(CC(O)COCCCCCCCCC)CC(O)COCCCCCCCCC)CC(O)COCCCCCCCCC (centres unmarked) [MB-77]			superior internalization efficiency
